Consider one compound from patent publication US8541455B2, “Derivatives of 2-pyridin-2-yl-pyrazol-3(2H)-one, preparation and therapeutic use thereof as HIF activators” (Sanofi, priority 2008, dated 2013).

Data set [1] has as its system HIF1-alpha. Put plainly: Measurement of the stabilization of HIF1-alpha in HEKEA cells (beta-galactosidase complementation, luminescence). The data set is classed as cell-based, human. Conditions: HEKEA_HIF1-alphaPLBL cells, 6 hours incubation under normoxia; concentration that produces 50% of the maximum response of this same compound. From the text:
Furthermore, a subject of the invention is also a uniform test process for the direct measurement by beta-galactosidase complementation of the amount of HIF1-alpha protein in the nucleus of cells, preferably HEK cells, after treating the said cells with one or more test compounds, which consists in: • (a) inoculating, preferably in 384-well plates, the said cells in a suitable culture medium, preferably 1% foetal calf serum (abbreviated as FCS); • (b) adding the test compound(s) at a suitable concentration in a suitable solvent to the cells previously inoculated in the said culture medium; preferably the test compounds are diluted in 0.1% FCS; • (c) incubating the said cells thus prepared in an indicator at about 37° C., advantageously for about 6 hours; • (d) lysing the cells with a lysis buffer containing a chemiluminescent substrate for beta-galactosidase; • (e) incubating in the absence of light, before reading and measuring the luminescence, which is a function of the beta-galactosidase activity.
Many tests exist describing the indirect measurement of the activity of HIF via reporter gene systems (HRE-luciferase) or via the measurement of HIF-induced proteins (for example VEGF or EPO). Furthermore, the only tests that allow direct measurement of the amount of HIF1-alpha protein in cells are tests using antibodies, for instance Western blotting comprising phases of cell extraction (total lysates or nuclear extracts) that are consuming in terms of cells and time, thus limiting the compound screening capacity. The object was thus to develop a sensitive screening test, adaptable to 384-well plates, for directly measuring the amount of HIF1-alpha protein in the nucleus of cells. This test was established in HEK cells ([…]).
The test is a cell test based on the principle of enzyme complementation, the enzyme used herein being beta-galactosidase. HEKEA cells are HEK cells stably expressing, and restricted in their nucleus, mutant beta-galactosidase (omega fragment, also known as EA) (line sold by DiscoverX). This construct makes it possible to obtain beta-galactosidase activity only when the protein comprising the Prolabel complementation fragment has migrated into the nucleus.
The protein of interest comprising the Prolabel fragment is in this case an HIF1-alpha or HIF1-alpha mutated at the two prolines 402 and 564 replaced with alanines, is C-terminal fused via molecular biology (DiscoverX vector sold by Clontech) with the small complementation peptide fragment (Prolabel or ED, about 4 kDa). The vector coding for the chimeric protein HIF1-alpha_Prolabel is then transfected into HEKEA cells to obtain stable clones (HEKEA_HIF1-alphaPLBL).
The amount of C-terminal Prolabel-“labelled” HIF1-alpha protein obtained after treating the cells to hypoxia or compounds that are potentially HIF activators is measured by adding to the cells a lysis buffer containing a chemiluminescent substrate for beta-galactosidase.
The measurement of the beta-galactosidase activity will be proportional to the amount of Prolabel and thus of HIF1-alpha that has migrated into the nucleus of the cells.
• 1.3.1 Experiment Plan • 1) Inoculation of the cells on D0 • 2) Adherence for 24 hours under normoxia • 3) Preparation and addition of the products (Biomek 2000 and FX) on D+1 • 4) Incubation under normoxia for 6 hours • 5) Reading of the plates (by luminescence)
The cells are inoculated with Multidrop in white, opaque-bottomed 384-well plates (Greiner ref 3704), in 30 μl of culture medium (1% FCS) at 10 000 cells/well (cell plate). • 1.3.3 Treatment • Preparation of the Dilution Plate (DL Plate)
The test products are prepared at 3×10^−2 M in 100% DMSO and then diluted to 3×10^−4 M in medium containing 0.1% FCS (10 μl in 990 μl of MEM). They are then deposited by hand into column 12 of a round-bottomed 96-well plate (200 μl of each compound) known as the dilution plate (dl). […]

For data set [2], the system named is EPO secretion by Hep3B cells. In words: Measurement of the secretion of EPO by Hep3B hepatocytes (ELISA on supernatant). Conditions: Homo sapiens, 18 hours incubation under normoxia, EPO in supernatant, 50% of the maximum response of this same compound. In kind it is cell-based. From the text:
(§1) 2. Measurement of the Secretion of VEGF and EPO by Hep3B Hepatocytes 2.1. Object
(§2) HIF is a transcription factor involved in the adaptation of cells to hypoxia. Since the genes activated by HIF are involved in the adaptive response of cells to hypoxia and of tissues to ischaemia, the object is to identify and characterize compounds that stabilize HIF1-alpha in cells in order to amplify or mimic its beneficial effect. HIF1-alpha was identified following the analysis of the EPO gene promoter, which makes this protein one of the first markers of HIF1-alpha activation. Moreover, VEGF is also identified in the literature as one of the main markers of HIF activation. It is for this reason that measurement of these two proteins was selected for characterizing compounds that are HIF activators in Hep3B cells.
(§3) The object was thus to develop a sensitive screening test, adaptable to 96-well plates, for directly measuring the amount of VEGF and EPO in the supernatant of the Hep3B cells (cells derived from a human hepatocarcinoma) in response to the potential HIF activators.
(§4) The test is an ELISA test for measuring VEGF and EPO in the supernatant of Hep3B cells treated under hypoxia or with deferoxamine as controls or with the potential HIF activators. The test was adapted to a 96-well plate, allowing greater compound screening capacity.
(§5) • 2.3.1 Experiment Plan • 1) Inoculation of the cells on D0 • 2) Adherence for 6 hours under normoxia • 3) Preparation and addition of the products (Biomek 2000 and FX) • 4) Incubation under normoxia for 18 hours • 5) EPO and VEGF assay in the supernatant on D+1 • 2.3.2 Inoculation of the Cells
(§6) The cells are subcultured into 100 μl of culture medium (10% FCS) in black, opaque-bottomed 96-well plates (reference Costar 3916) at 30 000 cells/well, with Multidrop. • 2.3.3 Treatment of the Cells
(§7) The test products are prepared at 10^−2 M in 100% DMSO and then diluted to […] in medium containing 0.1% FCS (6 μl in 194 μl of MEM). 200 μl of each compound are deposited in column 12 of a 96-well plate. Dilution ranges from […] to 3×10^−8M are prepared with Biomek 2000 (programme: range of 9 points in series). 100 μl of MEM 0.1% FCS and Deferoxamine 5×10^−3M are added as controls to column 3 and, respectively, to wells A,B,C,D and wells E,F,G,H • DL Plate Distribution in Cell Plates
(§8) The medium of the cells inoculated the day before into 96-well plates is changed for 90 μl of medium containing 0.1% FCS and 10 μl are distributed with FX 96 from the 96-well DL plates to the cell plates.
(§9) The cell plates thus treated are placed for 18 hours in an incubator at 37° C. (ambient O2, 6% CO2).
(§10) The supernatants (80 μl) of the Hep3B cells in the 96-well plates treated with the potential HIF activators are recovered with a multichannel pipette for simultaneous assay of the VEGF and the EPO by ELISA according to the supplier's instructions (Kit EPO Mesoscale (ref K15122B-2)).
(§11) The activating activity of a compound with respect to HIF is given by the concentration that produces 50% of the maximum response of this same compound in Table IV below.
(ELISA stands for enzyme-linked immunosorbent assay.)

Data set [3] has as its system VEGF secretion by Hep3B cells. In words: Measurement of the secretion of VEGF by Hep3B hepatocytes (ELISA on supernatant). Conditions: Homo sapiens, 18 hours incubation under normoxia, VEGF in supernatant, 50% of the maximum response of this same compound. The data set is classed as cell-based.
Excerpt: as §1, §2, §3, §4, §5, §6, §7, §8, §9, §10, §11

SMILES strings stand for the structures.

`CCN(c1ccccc1)S(=O)(=O)c1ccc(-n2[nH]c(C)c(CCCc3ccccc3)c2=O)nc1` [Compound 92]: the melting point (commonly the temperature, or range, at which the solid turns liquid) amounted to 158 °C. Also, it took 860 nM to reach a half-maximal effect in data set [1] (EC50). The EC50 (as a rule, the concentration that produces a half-maximal response) in data set [2] was 500 nM. In addition, the EC50 in data set [3] came to 500 nM.
